Source: ChEMBL document CHEMBL5143574, “Unraveling the anti-virulence potential and antifungal efficacy of 5-aminotetrazoles using the zebrafish model of disseminated candidiasis” (Eur J Med Chem, 2022)
Calls of active or inactive are those of the source. No cut-off for these calls is given here.

Assays:
[1] = Reduction of nystatin resistance against Candida albicans SC5314 assessed as nystatin MIC at 5 to 10 uM measured after consecutive treatment with nystatin for 12 days; type: functional; conditions: SC5314, 288 h, dose 5-10 µM
Candida albicans [2] = experiment: Anti-virulence activity against 53-75 RFP expressing cells of Candida albicans M137 in hind brain of zebra fish embryo disseminated candidiasis model assessed as inhibition of fungal filamentation by measuring reduction of hyphae formation in the hind brain at 2.5 to 10 uM treated at 1 hr post-infection and measured on day 4 post infection by fluorescence microscopy; type: functional; design: scale not given: the % may be the effect or the level left; conditions: dose 2.5-10 µM, time 4 day
Candida albicans [3] = experiment: Anti-virulence activity against Candida albicans SC5314 assessed as inhibition of fungal filamentation by measuring reduction of hyphae formation in Lee medium at 1.3 uM incubated for 3 to 5 days by stereomicroscopic analysis; type: functional, organism-based; conditions: time 3-5 day
Candida albicans [4] = experiment: Anti-virulence activity against Candida albicans SC5314 assessed as inhibition of fungal filamentation by measuring reduction of hyphae formation in YPS plus uridine medium at 1.3 uM incubated for 3 to 5 days by stereomicroscopic analysis; type: functional, organism-based; conditions: time 3-5 day
Candida albicans [5] = experiment: Anti-virulence activity against Candida albicans SC5314 assessed as inhibition of fungal filamentation by measuring reduction of hyphae formation in YPS medium at 1.3 uM incubated for 3 to 5 days by stereomicroscopic analysis; type: functional, organism-based; conditions: time 3-5 day
Candida albicans [6] = experiment: Indifferent antifungal activity against Candida albicans SC5314 assessed as fractional inhibitory concentration index incubated for 24 hrs in RPMI medium in presence of nystatin by checkerboard assay; type: functional
[7] = Toxicity in zebrafish embryos assessed as toxic responses at 200 uM treated at 6 hpf and measured at 120 hpf by stereomicroscopic analysis; design: species or system Danio rerio; conditions: in vivo, 24 h
Candida albicans [8] = experiment: (§1) Anti-virulence activity against 53-75 RFP expressing cells of Candida albicans M137 in hind brain of zebra fish embryo disseminated candidiasis model assessed as reduction in mortality by measuring embryo survival rate treated at 1 hr post-infection and measured on day 4 post infection (reference value: 10%); type: functional; conditions: time 4 day
Candida albicans [9] = experiment: Anti-virulence activity against Candida albicans SC5314 assessed as inhibition of fungal filamentation by measuring reduction in hyphae formation in YPS plus uridine medium upto 10 uM incubated for 3 to 5 days by stereomicroscopic analysis; type: functional, organism-based; conditions: time 3-5 day
[10] = Toxicity in zebrafish embryos assessed as mortality treated at 6 hpf and measured at 120 hpf by stereomicroscopic analysis; design: species or system Danio rerio; conditions: in vivo
Candida albicans [11] = experiment: Anti-virulence activity against Candida albicans SC5314 assessed as inhibition of fungal filamentation by measuring reduction in hyphae formation in Lee medium upto 10 uM incubated for 3 to 5 days by stereomicroscopic analysis; type: functional, organism-based; conditions: time 3-5 day
Candida albicans [12] = experiment: Anti-virulence activity against Candida albicans SC5314 assessed as inhibition of fungal filamentation by measuring reduction of hyphae formation in RPMI medium upto 10 uM incubated for 3 to 5 days by stereomicroscopic analysis; type: functional, organism-based; conditions: time 3-5 day
Candida albicans [13] = experiment: as §1, with “activity” for “activity against”, “at 48 hrs” for “on day 4”, “40%)” for “10%)”; type: functional
Candida albicans [14] = experiment: Anti-virulence activity against Candida albicans SC5314 assessed as inhibition of fungal filamentation by measuring reduction of hyphae formation in Spider medium at 1.3 uM incubated for 3 to 5 days by stereomicroscopic analysis; type: functional, organism-based; conditions: time 3-5 day
Candida albicans [15] = experiment: Anti-virulence activity against Candida albicans SC5314 assessed as inhibition of fungal filamentation by measuring reduction of hyphae formation in GlcNAc medium at 1.3 uM incubated for 3 to 5 days by stereomicroscopic analysis; type: functional, organism-based; conditions: time 3-5 day
Candida albicans [16] = experiment: Anti-virulence activity against Candida albicans SC5314 assessed as inhibition of fungal filamentation by measuring reduction of hyphae formation in SLAD medium at 1.3 uM incubated for 3 to 5 days by stereomicroscopic analysis; type: functional, organism-based; conditions: time 3-5 day
Candida albicans [17] = experiment: Anti-virulence activity against Candida albicans SC5314 assessed as inhibition of fungal filamentation by measuring reduction in hyphae formation in GlcNAc medium upto 10 uM incubated for 3 to 5 days by stereomicroscopic analysis; type: functional, organism-based; conditions: time 3-5 day
Candida albicans [18] = experiment: Anti-virulence activity against Candida albicans SC5314 assessed as inhibition of fungal filamentation by measuring reduction of hyphae formation in YPS medium at 2.5 uM incubated for 3 to 5 days by stereomicroscopic analysis; type: functional; conditions: time 3-5 day
Candida albicans [19] = experiment: Anti-virulence activity against Candida albicans SC5314 assessed as inhibition of fungal filamentation by measuring reduction in hyphae formation in SLAD medium upto 10 uM incubated for 3 to 5 days by stereomicroscopic analysis; type: functional, organism-based; conditions: time 3-5 day
Candida albicans [20] = experiment: Antifungal activity against Candida albicans SC5314 assessed as inhibition of fungal growth incubated for 24 hrs by broth microdilution assay; type: functional
Candida albicans [21] = experiment: Anti-virulence activity against 120-140 RFP expressing cells of Candida albicans M137 expressing infected in hind brain of zebra fish embryo disseminated candidiasis model assessed as inhibition of fungal filamentation by measuring reduction of hyphae formation at 10 uM in presence of 1 ug/ml nystatin measured at 120 hpf; type: functional; design: scale not given: the % may be the effect or the level left
Candida albicans [22] = experiment: Anti-virulence activity against 120-140 RFP expressing cells of Candida albicans M137 infected in hind brain of zebra fish embryo disseminated candidiasis model assessed as embryo mortality at 10 uM measured at 120 hpf; type: functional
Candida albicans [23] = experiment: Anti-virulence activity against 120-140 RFP expressing cells of Candida albicans M137 infected in hind brain of zebra fish embryo disseminated candidiasis model assessed as embryo survival rate upto 10 uM in presence of 0.13 to 1 ug/ml nystatin measured at 120 hpf; type: functional; conditions: up to 10 µM
Candida albicans [24] = experiment: Anti-virulence activity against Candida albicans SC5314 assessed as inhibition of fungal filamentation by measuring reduction in hyphae formation in YPS medium upto 10 uM incubated for 3 to 5 days by stereomicroscopic analysis; type: functional, organism-based; conditions: time 3-5 day
Candida albicans [25] = experiment: Anti-virulence activity against 120-140 RFP expressing cells of Candida albicans M137 infected in hind brain of zebra fish embryo disseminated candidiasis model assessed as inhibition of fungal filamentation by measuring reduction of fungal hyphae formation at 10 uM in presence of 0.25 ug/ml nystatin measured at 120 hpf; type: functional
Candida albicans [26] = experiment: Anti-virulence activity against 120-140 RFP expressing cells of Candida albicans M137 infected in hind brain of zebra fish embryo disseminated candidiasis model assessed as embryo survival rate at 10 uM in presence of 0.25 ug/ml nystatin measured at 120 hpf; type: functional
Candida albicans [27] = experiment: Anti-virulence activity against Candida albicans SC5314 assessed as inhibition of fungal filamentation by measuring reduction in hyphae formation in Spider medium upto 10 uM incubated for 3 to 5 days by stereomicroscopic analysis; type: functional, organism-based; conditions: time 3-5 day
Candida albicans [28] = experiment: Anti-virulence activity against Candida albicans SC5314 assessed as inhibition of fungal filamentation by measuring reduction of hyphae formation in RPMI medium at 1.3 uM incubated for 3 to 5 days by stereomicroscopic analysis; type: functional, organism-based; conditions: time 3-5 day
Candida albicans [29] = experiment: Anti-virulence activity against Candida albicans SC5314 assessed as inhibition of fungal filamentation by measuring reduction of hyphae formation in Spider medium at 2.5 uM incubated for 3 to 5 days by stereomicroscopic analysis; type: functional; conditions: time 3-5 day
Candida albicans [30] = experiment: as §1, with “relative to control” for “(reference value: 10%)”; type: functional; conditions: time 4 day
Candida albicans [31] = experiment: Anti-virulence activity against Candida albicans SC5314 assessed as inhibition of fungal filamentation by measuring reduction of hyphae formation in GlcNAc medium at 2.5 uM incubated for 3 to 5 days by stereomicroscopic analysis; type: functional; conditions: time 3-5 day
Candida albicans [32] = experiment: Anti-virulence activity against Candida albicans SC5314 assessed as inhibition of fungal filamentation by measuring reduction of hyphae formation in SLAD medium at 2.5 uM incubated for 3 to 5 days by stereomicroscopic analysis; type: functional; conditions: time 3-5 day
[33] = Toxicity against zebrafish embryo infected with 53-75 RFP expressing cells of Candida albicans M137 assessed as mortality at 2.5 to 10 uM treated at 1 hr post-infection and measured on day 4 post-infection; design: species or system Danio rerio; conditions: 96 h, dose 2.5-10 µM, time 4 day

Structure (SMILES): Nc1nnnn1CCC12CC3CC(CC(C3)C1)C2
- MIC [1]: 1 µg/mL
- Activity (Candida albicans [2]): 100%
- Activity (Candida albicans [3]): Active
- Activity (Candida albicans [4]): Active
- Activity (Candida albicans [5]): Active
- fractional inhibitory concentration index (FICI) (Candida albicans [6]): 1
- Activity [7]: Non-Toxic
- Survival (Candida albicans [8]): 70%
- Activity (Candida albicans [9]): Active
- LC50 [10]: > 200 µM
- Activity (Candida albicans [11]): Active
- Activity (Candida albicans [12]): Active
- Survival (Candida albicans [13]): 50%
- Activity (Candida albicans [14]): Active
- Activity (Candida albicans [15]): Active
- Activity (Candida albicans [16]): Active
- Activity (Candida albicans [17]): Active
- inhibition at 2.5 µM (Candida albicans [18]): 100%
- Activity (Candida albicans [19]): Active
- MIC (Candida albicans [20]): > 200 µM
- Activity (Candida albicans [21]): 100%
- mortality at 10 µM (Candida albicans [22]): 80%
- Survival (Candida albicans [23]): <=80%
- Activity (Candida albicans [24]): Active
- inhibition in vivo at 10 µM (Candida albicans [25]): ≤ 30%
- survival at 10 µM (Candida albicans [26]): ≤ 30%
- Activity (Candida albicans [27]): Active
- Activity (Candida albicans [28]): Active
- inhibition at 2.5 µM (Candida albicans [29]): 100%
- fold change (FC) (Candida albicans [30]): 7
- inhibition at 2.5 µM (Candida albicans [31]): 100%
- inhibition at 2.5 µM (Candida albicans [32]): 100%
- Activity [33]: Non-Toxic
